Reference: patent US20250034182A1, “PHOSPHOLIPID COMPOUNDS AND METHODS OF MAKING AND USING THE SAME” (priority 2021, published 2025)

Assays:
Type in all cases: cell-based
[1] = system: Human Rhinovirus 16 (HRV16) in H1-HeLa cells; assay: H1-HeLa HRV-CTG EC50, HRV16 (Example Z); conditions: Rhinovirus A, HRV16, 96 h, MOI 0.25, 4 days, Celltiter-Glo, read-out: HRV 16 HELA EC50 (nM) (per Ex. Z)
Source text: (§1) H1-Hela cell line (ATCC, Manassas, VA, Cat #CRL-1958) was maintained in Dulbecco's […] (DMEM) (Corning, New York, NY, Cat #15-018CM) supplemented with 10% fetal bovine serum (FBS) (Hyclone, Logan, UT, Cat #SH30071-03), and 1× Penicillin-Streptomycin-L-Glutamine (Coming, New York, NY, Cat #30-009-C1). Cells were passaged 2 times per week to maintain sub-confluent densities and were used for experiments at passage 5-30. The Human Rhinovirus 1B (HRV1B) (ATCC, Manassas, VA, Cat #VR-1645), Human Rhinovirus 14 (HRV14) (ATCC, Manassas, VA, Cat #VR-284), and Human Rhinovirus 16 (HRV16) (ATCC, Manassas, VA, Cat #BR-283) was obtained through ATCC. Viral infection was monitored by determining viability of H1-HeLa cells as described below.
(§2) Test molecules are prepared in 100% DMSO in 384-well polypropylene plates (Greiner, Monroe, NC, Cat #784201) with 8 compounds per plate in grouped replicates of 4 at 10 serially diluted concentrations (1:3). The serially diluted compounds were transferred to low dead volume Echo plates (Labcyte, Sunnyvale, CA, Cat #LP-0200).
(§3) The test compounds were spotted to 384-well assay plates (Greiner, Monroe, NC, Cat #781091) at 200 nL per well using an Echo acoustic dispenser (Labcyte, Sunnyvale, CA). H1-HeLa cells were harvested and suspended in DMEM (supplemented with 2% FBS and 1× Penicillin-Streptomycin-L-Glutamine) and seeded to the pre-spotted assay plates at 5,000 cells per well in 30 μL. HRV1B, HRV14, and HRV16 was diluted in DMEM (supplemented with 2% FBS and 1× Penicillin-Streptomycin-L-Glutamine) at 97.1 million Infectious Units (IU) per mL, 151 million IU per mL and 221 million IU per mL respectively. 10 μL of virus per well was added to the assay plates containing cells and compounds, for an MOI of 0.5, 1.0, and 0.25 respectively. The assay plates were incubated for 4 days at 37° C. and 5% CO2. At the end of incubation, Celltiter-Glo (Promega, Madison, WI, Cat #G7573) was prepared. The assay plates and Celltiter-Glo reagent were equilibrated to room temperature for at least 15 minutes. 40 μL per well of Celltiter-Glo reagent was added and the plates were incubated at room temperature for 15 minutes before reading the luminescence signal on an EnVision multimode plate reader (Perkin Elmer, Waltham, MA). Rupintrivir was used as positive control and DMSO was used as negative control. Values were normalized to the positive and negative controls (as 0% and 100% replication, respectively) and data was fitted using non-linear regression analysis by Gilead's dose response tool. The EC50 value for each compound was defined as the concentration reducing viral replication by 50%.

[2] = system: Respiratory syncytial virus recombinant with luciferase (RSV-Luc5) in HEp-2 cells; assay: HEp-2 RSV-Luc5 384-well assay (EC50 RSVFLUC Hep2-384 v2, Example V); conditions: human respiratory syncytial virus, HEp-2, 72 h, read-out: RSV Hep-2 FLuc EC50 (v2) (nM) (per Ex. V)
Procedure, shortened: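 HEp-2 cells (4,000/well) infected with RSV-Luc5 at MOI 0.5 in DMEM/10% FBS with compound, 10-point 1:3 dilutions, 3 days at 37 °C. Replication read by One-Glo luminescence, normalized to remdesivir (0%) and DMSO (100%). EC50 from non-linear regression as concentration giving 50% reduction.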

[3] = RSV NHBE CC50 384 V2 (per Ex. U); conditions: human
[4] = RSV HEP2-CC50-384-V2 (per Ex. V); conditions: human
[5] = system: Human Rhinovirus 14 (HRV14) in H1-HeLa cells; assay: H1-HeLa HRV-CTG EC50, HRV14 (Example Z); conditions: Rhinovirus B, HRV14, 96 h, MOI 1.0, 4 days, Celltiter-Glo, read-out: HRV14 HELA EC50 (nM) (per Ex. Z)
Source text: as §1, §2, §3

In the case of `CCCCCCCCCCCCCCCCCC[C@@H](COP(=O)(O)OC[C@@]1(C#N)O[C@@H](c2ccc3c(N)ncnn23)[C@H](O)[C@@H]1O)OCc1cc(F)cc(C#N)c1` [Compound 37, ((2R,3S,4R)-5-(4-aminopyrrolo[2,1-f][1,2,4]triazin-7-yl)-2-cyano-3,4-dihydroxytetrahydrofuran-2-yl)methyl ((S)-2-((3-cyano-5-fluorobenzyl)oxy)icosyl) hydrogen phosphate], the EC50 [1] is reported as 249 nM, the EC50 [2] is reported as 1240 nM and the CC50 at 3 days [3] is reported as 3.11 µM. It also gave a CC50 at 3 days [4] greater than 38.1 µM and an EC50 [5] of 183 nM.
Work on `CCCCCCCCCCCCCCCCCCCC[C@H](COP(=O)(O)OC[C@@]1(C#N)O[C@@H](c2ccc3c(N)ncnn23)[C@H](O)[C@@H]1O)OCc1cc(F)cc(C#N)c1` [Compound 34, ((2R,3S,4R)-5-(4-aminopyrrolo[2,1-f][1,2,4]triazin-7-yl)-2-cyano-3,4-dihydroxytetrahydrofuran-2-yl)methyl ((R)-2-((3-cyano-5-fluorobenzyl)oxy)docosyl) hydrogen phosphate] yielded an EC50 [1] of 316 nM, an EC50 [2] of 1890 nM and a CC50 at 3 days [3] of 7.25 µM. It also gave a CC50 at 3 days [4] greater than 43.2 µM and an EC50 [5] of 276 nM.
In the case of `CCCCCCCCCCCCCCCCCCOCC(COc1cc(F)cc(C#N)c1)COP(=O)(O)OC[C@@]1(C#N)O[C@@H](c2ccc3c(N)ncnn23)[C@H](O)[C@@H]1O` (stereo partly drawn) [Compound 43, ((2R,3S,4R,5S)-5-(4-aminopyrrolo[2,1-f][1,2,4]triazin-7-yl)-2-cyano-3,4-dihydroxytetrahydrofuran-2-yl)methyl (3-(3-cyano-5-fluorophenoxy)-2-((octadecyloxy)methyl)propyl) hydrogen phosphate], the EC50 [1] is reported as 53 nM, the EC50 [2] is reported as 707 nM and the CC50 at 3 days [3] is reported as 11.9 µM. For the same molecule, the CC50 at 3 days [4] was greater than 30.3 µM and the EC50 [5] was 75 nM.
With `CCCCCCCCCCCCCCCCCCOC[C@H](COP(=O)(O)OC[C@@]1(C#N)O[C@@H](c2ccc3c(N)ncnn23)[C@H](O)[C@@H]1O)OCc1cccc(C#N)n1` [Compound 68, ((2R,3S,4R)-5-(4-aminopyrrolo[2,1-f][1,2,4]triazin-7-yl)-2-cyano-3,4-dihydroxytetrahydrofuran-2-yl)methyl ((R)-2-((6-cyanopyridin-2-yl)methoxy)-3-(octadecyloxy)propyl) hydrogen phosphate] the EC50 [1] was 20 nM, the EC50 [2] was 110 nM and the CC50 at 3 days [3] was 2.06 µM. It also gave a CC50 at 3 days [4] of 42.8 µM and an EC50 [5] of 35 nM.
With `CCCCCCCCCCCCCCCCCCOC[C@H](COP(=O)(O)OC[C@@]1(C#N)O[C@@H](c2ccc3c(N)ncnn23)[C@H](O)[C@@H]1O)Oc1ccc(C#N)c(OC(C)C)c1` [Compound 23, ((2R,3S,4R,5S)-5-(4-aminopyrrolo[2,1-f][1,2,4]triazin-7-yl)-2-cyano-3,4-dihydroxytetrahydrofuran-2-yl)methyl ((R)-2-(4-cyano-3-isopropoxyphenoxy)-3-(octadecyloxy)propyl) hydrogen phosphate] the EC50 [1] was 7 nM, the EC50 [2] was 71 nM and the CC50 at 3 days [3] was 5.4 µM. It also gave a CC50 at 3 days [4] greater than 42 µM and an EC50 [5] of 9 nM.
Molecule `CCCCCCCCCCCCCCOC[C@H](COP(=O)(O)OC[C@@]1(C#N)O[C@@H](c2ccc3c(N)ncnn23)[C@H](O)[C@@H]1O)OCc1ccc(C#N)cc1F` [Compound 75, ((2R,3S,4R,5S)-5-(4-aminopyrrolo[2,1-f][1,2,4]triazin-7-yl)-2-cyano-3,4-dihydroxytetrahydrofuran-2-yl)methyl ((R)-2-((4-cyano-2-fluorobenzyl)oxy)-3-(tetradecyloxy)propyl) hydrogen phosphate] has an EC50 [1] of 37 nM, an EC50 [2] of 446 nM and a CC50 at 3 days [3] of 4.62 µM. For the same molecule, the CC50 at 3 days [4] was greater than 48.5 µM and the EC50 [5] was 37 nM.
With `CCCCCCCCCCCCCCCCC[C@@H](COP(=O)(O)OC[C@@]1(C#N)O[C@@H](c2ccc3c(N)ncnn23)[C@H](O)[C@@H]1O)OCc1cc(F)cc(C#N)c1` [Compound 74, ((2R,3S,4R)-5-(4-aminopyrrolo[2,1-f][1,2,4]triazin-7-yl)-2-cyano-3,4-dihydroxytetrahydrofuran-2-yl)methyl ((S)-2-((3-cyano-5-fluorobenzyl)oxy)nonadecyl) hydrogen phosphate] the EC50 [1] was 49 nM, the EC50 [2] was 782 nM and the CC50 at 3 days [3] was 1.54 µM. The CC50 at 3 days [4] was 28 µM and the EC50 [5] was 67 nM.
In the case of `CCCCCCCCCCCCCCCCC[C@H](COP(=O)(O)OC[C@@]1(C#N)O[C@@H](c2ccc3c(N)ncnn23)[C@H](O)[C@@H]1O)OCc1cc(Cl)cc(C#N)c1` [Compound 76, ((2R,3S,4R)-5-(4-aminopyrrolo[2,1-f][1,2,4]triazin-7-yl)-2-cyano-3,4-dihydroxytetrahydrofuran-2-yl)methyl ((R)-2-((3-chloro-5-cyanobenzyl)oxy)nonadecyl) hydrogen phosphate], the EC50 [2] is reported as 382 nM, the CC50 at 3 days [3] is reported as 3.55 µM and the CC50 at 3 days [4] is reported as 33.7 µM.
With `CCCCCCCCCCCCCCCCCC[C@H](COP(=O)(O)OC[C@@]1(C#N)O[C@@H](c2ccc3c(N)ncnn23)[C@H](O)[C@@H]1O)OCc1cc(Cl)cc(C#N)c1` [Compound 81, ((2R,3S,4R,5S)-5-(4-aminopyrrolo[2,1-f][1,2,4]triazin-7-yl)-2-cyano-3,4-dihydroxytetrahydrofuran-2-yl)methyl ((R)-2-((3-chloro-5-cyanobenzyl)oxy)icosyl) hydrogen phosphate] the EC50 [2] was 445 nM, the CC50 at 3 days [3] was 2.48 µM and the CC50 at 3 days [4] was 23 µM.
Molecule `CCCCCCCCCCCCCCCCCCC[C@H](COP(=O)(O)OC[C@@]1(C#N)O[C@@H](c2ccc3c(N)ncnn23)[C@H](O)[C@@H]1O)OCc1cc(Cl)cc(C#N)c1` [Compound 82, ((2R,3S,4R,5S)-5-(4-aminopyrrolo[2,1-f][1,2,4]triazin-7-yl)-2-cyano-3,4-dihydroxytetrahydrofuran-2-yl)methyl ((R)-2-((3-chloro-5-cyanobenzyl)oxy)henicosyl) hydrogen phosphate] has an EC50 [2] of 1250 nM, a CC50 at 3 days [3] of 6.12 µM and a CC50 at 3 days [4] of 29 µM.
For `CCCCCCCCCCCCCCCCOC[C@@H](COP(=O)(O)OC[C@@]1(C#N)O[C@@H](c2ccc3c(N)ncnn23)[C@H](O)[C@@H]1O)OCc1cc(F)cc(C#N)c1` [Compound 88, ((2R,3S,4R,5S)-5-(4-aminopyrrolo[2,1-f][1,2,4]triazin-7-yl)-2-cyano-3,4-dihydroxytetrahydrofuran-2-yl)methyl ((S)-2-((3-cyano-5-fluorobenzyl)oxy)-3-(hexadecyloxy)propyl) hydrogen phosphate], the EC50 [2] was 191 nM, the CC50 at 3 days [3] was 7.53 µM and the CC50 at 3 days [4] was 36.6 µM.
Work on `CCCCCCCCCCCCCCCCCC[C@H](COP(=O)(O)OC[C@@]1(C#N)O[C@@H](c2ccc3c(N)ncnn23)[C@H](O)[C@@H]1O)OCc1cc(F)cc(C#N)c1` [Compound 84, ((2R,3S,4R,5S)-5-(4-aminopyrrolo[2,1-f][1,2,4]triazin-7-yl)-2-cyano-3,4-dihydroxytetrahydrofuran-2-yl)methyl ((R)-2-((3-cyano-5-fluorobenzyl)oxy)icosyl) hydrogen phosphate] yielded an EC50 [2] of 325 nM, a CC50 at 3 days [3] of 24.5 µM and a CC50 at 3 days [4] greater than 50 µM.
Work on `CCCCCCCCCCCCCCCCCCOC[C@H](COP(=O)(O)OC[C@@]1(C#N)O[C@@H](c2ccc3c(N)ncnn23)[C@H](O)[C@@H]1O)OCc1ccc(C#N)nc1` [Compound 19, ((2R,3S,4R,5S)-5-(4-aminopyrrolo[2,1-f][1,2,4]triazin-7-yl)-2-cyano-3,4-dihydroxytetrahydrofuran-2-yl)methyl ((R)-2-((6-cyanopyridin-3-yl)methoxy)-3-(octadecyloxy)propyl) hydrogen phosphate] yielded an EC50 [2] of 60 nM and a CC50 at 3 days [4] of 46.4 µM.
